In patent US11638707B2, “Substituted amino triazoles useful as chitinase inhibitors” (Molecure S.A., priority 2019, dated 2023):
pIC50: −log10 of the molar value. Counter-ions that a name gives are not always drawn.

What was measured:
recombinant human AMCase = recombinant human AMCase (Homo sapiens (Human), UniProt Q9BZP6); assay: Human AMCase activity assay; format: biochemical; conditions: citrate buffer pH 5.2, 37° C., 60 minutes, read-out: hAMCase, IC50
Method: (§1) The assay was run in the 96-well plate format, each reaction in the total volume of 100 μL. 4-Methylumbelliferyl B-D-N,N′-diacetylchitobioside hydrate was used as a substrate for the enzyme. Upon hydrolysis by AMCase, the substrate releases 4-methylumbelliferyl (4MU) that, when ionized in basic pH, emits fluorescence at 460 nm. Briefly, 40 μL of a substrate was added to each well, followed by 10 μL of compound dilution and 50 μL of hAMCase recombinant enzyme solution. The reaction was carried out in citrate buffer, pH 5.2, in the dark, at 37° C. for 60 minutes with shaking. […] The IC50 values were calculated using GraphPad Prism.

hERG channel = hERG channel (Homo sapiens (Human), UniProt Q12809); assay: Human ERG channel binding assay (fluorescence polarization); conditions: Table 1; tracer displacement, 4 h at room temperature
hERG channel, sequence (Q12809 whole entry): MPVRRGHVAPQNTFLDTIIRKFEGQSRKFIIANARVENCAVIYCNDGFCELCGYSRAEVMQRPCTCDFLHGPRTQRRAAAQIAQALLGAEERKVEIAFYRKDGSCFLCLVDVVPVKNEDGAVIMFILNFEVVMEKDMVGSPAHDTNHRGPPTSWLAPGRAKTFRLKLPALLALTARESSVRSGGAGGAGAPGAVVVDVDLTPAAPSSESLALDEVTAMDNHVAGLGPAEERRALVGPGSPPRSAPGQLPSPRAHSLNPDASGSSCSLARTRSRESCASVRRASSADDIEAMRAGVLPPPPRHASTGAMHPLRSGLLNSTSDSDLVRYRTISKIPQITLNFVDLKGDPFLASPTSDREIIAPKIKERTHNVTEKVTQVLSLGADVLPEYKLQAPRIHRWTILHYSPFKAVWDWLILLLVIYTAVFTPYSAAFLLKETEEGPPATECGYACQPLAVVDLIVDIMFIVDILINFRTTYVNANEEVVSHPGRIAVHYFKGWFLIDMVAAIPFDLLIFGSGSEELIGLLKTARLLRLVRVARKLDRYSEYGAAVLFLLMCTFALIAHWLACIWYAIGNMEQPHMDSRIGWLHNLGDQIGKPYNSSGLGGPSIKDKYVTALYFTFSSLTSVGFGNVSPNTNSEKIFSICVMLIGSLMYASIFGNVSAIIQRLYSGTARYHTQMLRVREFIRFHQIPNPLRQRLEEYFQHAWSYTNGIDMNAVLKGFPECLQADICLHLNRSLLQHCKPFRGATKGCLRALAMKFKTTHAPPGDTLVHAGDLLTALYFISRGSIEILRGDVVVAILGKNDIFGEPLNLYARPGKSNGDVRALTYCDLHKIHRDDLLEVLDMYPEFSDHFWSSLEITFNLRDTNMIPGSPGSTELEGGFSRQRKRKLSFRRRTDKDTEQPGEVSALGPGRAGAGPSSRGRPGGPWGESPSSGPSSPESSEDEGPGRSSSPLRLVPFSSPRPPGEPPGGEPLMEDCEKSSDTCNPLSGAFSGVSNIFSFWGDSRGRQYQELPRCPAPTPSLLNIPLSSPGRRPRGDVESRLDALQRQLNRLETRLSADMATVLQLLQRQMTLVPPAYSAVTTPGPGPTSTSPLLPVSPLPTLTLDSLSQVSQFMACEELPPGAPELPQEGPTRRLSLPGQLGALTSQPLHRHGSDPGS
Method: Human ERG Channel Binding Assay
Fluorescence polarization assay based on the principle of fluorescence polarization where a red-shifted fluorescent tracer is displaced from the hERG channel by compounds that bind to the channel was used to establish the binding of the compounds to hERG channel. […] Briefly, the compounds in serial dilutions were incubated with a membrane fraction containing hERG channel protein and a high-affinity red fluorescent hERG channel ligand in black 384-well plate. […] The IC50 values were calculated using GraphPad Prism.

recombinant human CHIT1 = recombinant human CHIT1 (Homo sapiens (Human), UniProt Q13231); assay: Human CHIT1 activity assay; format: biochemical; conditions: recombinant human CHIT1, citrate buffer pH 5.2, 37° C., 60 minutes; read-out: hCHIT1, IC50
recombinant human CHIT1, sequence (Q13231 22-466): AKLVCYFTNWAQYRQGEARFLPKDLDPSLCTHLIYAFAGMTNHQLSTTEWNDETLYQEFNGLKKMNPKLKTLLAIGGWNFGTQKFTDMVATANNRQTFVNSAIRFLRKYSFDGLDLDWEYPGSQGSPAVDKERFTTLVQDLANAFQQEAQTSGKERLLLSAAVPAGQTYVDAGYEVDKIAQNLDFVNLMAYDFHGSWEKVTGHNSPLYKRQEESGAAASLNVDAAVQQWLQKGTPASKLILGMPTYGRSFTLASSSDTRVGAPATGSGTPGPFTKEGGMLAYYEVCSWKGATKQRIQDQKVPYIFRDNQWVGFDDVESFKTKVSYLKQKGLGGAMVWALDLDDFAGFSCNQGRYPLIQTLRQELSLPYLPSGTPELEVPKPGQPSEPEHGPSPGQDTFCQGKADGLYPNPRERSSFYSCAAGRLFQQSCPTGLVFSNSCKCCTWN
Method: as §1, with “4-methylumbelliferyl β-D-N,N′,N″-triacetylchitotriose” for “4-Methylumbelliferyl B-D-N,N′-diacetylchitobioside hydrate”, “CHIT1,” for “AMCase,”, “CHIT1” for “hAMCase”

recombinant human AMCase, sequence (Q9BZP6 22-476): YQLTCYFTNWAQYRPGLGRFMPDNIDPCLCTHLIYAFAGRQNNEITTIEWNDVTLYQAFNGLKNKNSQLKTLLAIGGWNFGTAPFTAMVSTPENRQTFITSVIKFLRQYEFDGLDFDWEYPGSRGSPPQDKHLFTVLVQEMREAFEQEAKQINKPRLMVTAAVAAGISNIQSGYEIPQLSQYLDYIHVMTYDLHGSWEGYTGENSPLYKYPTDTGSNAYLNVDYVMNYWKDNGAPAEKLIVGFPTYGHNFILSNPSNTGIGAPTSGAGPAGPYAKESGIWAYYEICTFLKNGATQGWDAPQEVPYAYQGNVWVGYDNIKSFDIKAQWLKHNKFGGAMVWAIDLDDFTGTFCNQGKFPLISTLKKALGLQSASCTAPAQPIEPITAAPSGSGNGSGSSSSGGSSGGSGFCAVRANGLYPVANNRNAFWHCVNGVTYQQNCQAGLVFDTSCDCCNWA

Row | pIC50 (recombinant human AMCase) | pIC50 (recombinant human CHIT1) | SMILES | pIC50 (hERG channel)
1 | > 7.00 | > 7.00 | CC(F)[C@H]1CN(C2CCN(c3nnc(N)[nH]3)CC2)[C@@H](Cc2ccc(Cl)cc2)CO1 (relative stereo) [Example 20, 5-(4-((2R,5S)-5-(4-chlorobenzyl)-2-(1-fluoroethyl)morpholino)piperidin-1-yl)-4H-1,2,4-triazol-3-amine 2,2,2-trifluoroacetate] | < 4.00
2 | > 7.00 | > 7.00 | Nc1nnc(N2CCC(N3C[C@H](CN4CCC(F)(F)C4)OC[C@@H]3Cc3ccc(Cl)cc3)CC2)[nH]1 [Example 29, 5-(4-((2S,5S)-5-(4-chlorobenzyl)-2-((3,3-difluoropyrrolidin-1-yl)methyl)-morpholino)piperidin-1-yl)-4H-1,2,4-triazol-3-amine 2,2,2-trifluoroacetate] | < 4.00
3 | > 7.00 | > 7.00 | CS(=O)(=O)C[C@H]1CN(C2CCN(c3nnc(N)[nH]3)CC2)[C@@H](Cc2ccc(Cl)cc2)CO1 [Example 33, 5-(4-((2R,5S)-5-(4-chlorobenzyl)-2-((methylsulfonyl)methyl)morpholino)piperidin-1-yl)-4H-1,2,4-triazol-3-amine dihydrochloride] | < 4.00
4 | > 7.00 | 6.00 to 7.00 | Nc1nnc(N2CCC(N3C[C@H](CN4CCCCC4)OC[C@@H]3Cc3ccc(Cl)cc3)CC2)[nH]1 [Example 52, 5-(4-((2S,5S)-5-(4-chlorobenzyl)-2-(piperidin-1-ylmethyl)morpholino)piperidin-1-yl)-4H-1,2,4-triazol-3-amine 2,2,2-trifluoroacetate] | 4.00 to 4.60
5 | > 7.00 | > 7.00 | Nc1nnc(N2CCC(N3C[C@H](C(=O)N4CC(F)C4)OC[C@@H]3Cc3ccc(Cl)cc3)CC2)[nH]1 [Example 62, ((2R,5S)-4-(1-(5-amino-4H-1,2,4-triazol-3-yl)piperidin-4-yl)-5-(4-chlorobenzyl)-morpholin-2-yl)(3-fluoroazetidin-1-yl)methanone 2,2,2-trifluoroacetate] | < 4.00
6 | > 7.00 | > 7.00 | N#Cc1cnn(C[C@H]2CN(C3CCN(c4nnc(N)[nH]4)CC3)[C@@H](Cc3ccc(Cl)cc3)CO2)c1 [Example 8, 1-(((2R,5S)-4-(1-(5-amino-4H-1,2,4-triazol-3-yl)piperidin-4-yl)-5-(4-chlorobenzyl)-morpholin-2-yl)methyl)-1H-pyrazole-4-carbonitrile 2,2,2-trifluoroacetate] | 4.00 to 4.60
7 | > 7.00 | > 7.00 | Nc1nnc(N2CCC(N3C[C@H](C(F)F)OC[C@@H]3Cc3ccc(Cl)cc3)CC2)[nH]1 [Example 2, 5-(4-((2R,5S)-5-(4-chlorobenzyl)-2-(difluoromethyl)morpholino)piperidin-1-yl)-4H-1,2,4-triazol-3-amine 2,2,2-trifluoroacetate] | < 4.00
8 | > 7.00 | > 7.00 | Cn1ccc([C@H]2CN(C3CCN(c4nnc(N)[nH]4)CC3)[C@@H](Cc3ccc(Cl)cc3)CO2)n1 [Example 9, 5-(4-((2R,5S)-5-(4-chlorobenzyl)-2-(1-methyl-1H-pyrazol-3-yl)morpholino)-piperidin-1-yl)-4H-1,2,4-triazol-3-amine 2,2,2-trifluoroacetate] | < 4.00
9 | > 7.00 | 6.00 to 7.00 | Nc1nnc(N2CCC(N3C[C@H](CN4CC[C@@H](O)C4)OC[C@@H]3Cc3ccc(Cl)cc3)CC2)[nH]1 [Example 31, (R)-1-(((2S,5S)-4-(1-(5-amino-4H-1,2,4-triazol-3-yl)piperidin-4-yl)-5-(4-chlorobenzyl)morpholin-2-yl)methyl)pyrrolidin-3-ol 2,2,2-trifluoroacetate] | < 4.00
10 | > 7.00 | > 7.00 | C[C@H]1CN(C2CCN(c3nnc(N)[nH]3)CC2)[C@@H](Cc2ccc(Br)cc2)CO1 [Example 75, 5-(4-((2S,5S)-5-(4-bromobenzyl)-2-methylmorpholino)piperidin-1-yl)-4H-1,2,4-triazol-3-amine 2,2,2-trifluoroacetate] | 5.00 to 6.00
11 | > 7.00 | > 7.00 | CNS(=O)(=O)CCNC(=O)[C@H]1CN(C2CCN(c3nnc(N)[nH]3)CC2)[C@@H](Cc2ccc(Cl)cc2)CO1 [Example 46, (2R,5S)-4-(1-(5-amino-4H-1,2,4-triazol-3-yl)piperidin-4-yl)-5-(4-chlorobenzyl)-N-(2-(N-methylsulfamoyl)ethyl)morpholine-2-carboxamide 2,2,2-trifluoroacetate] | < 4.00
12 | > 7.00 | > 7.00 | Nc1nnc(N2CCC(N3C[C@H](COCC(F)(F)F)OC[C@@H]3Cc3ccc(Cl)cc3)CC2)[nH]1 [Example 39, 5-(4-((2R,5S)-5-(4-chlorobenzyl)-2-((2,2,2-trifluoroethoxy)methyl)morpholino)-piperidin-1-yl)-4H-1,2,4-triazol-3-amine 2,2,2-trifluoroacetate] | 5.00 to 6.00
13 | > 7.00 | > 7.00 | CSC[C@H]1CN(C2CCN(c3nnc(N)[nH]3)CC2)[C@@H](Cc2ccc(Cl)cc2)CO1 [Example 41, 5-(4-((2R,5S)-5-(4-chlorobenzyl)-2-((methylthio)methyl)morpholino)piperidin-1-yl)-4H-1,2,4-triazol-3-amine dihydrochloride] | 4.00 to 4.60
14 | > 7.00 | > 7.00 | CC(C)(O)[C@H]1CN(C2CCN(c3nnc(N)[nH]3)CC2)[C@@H](Cc2ccc(Br)cc2)CO1 [Example 64, 2-((2R,5S)-4-(1-(5-amino-4H-1,2,4-triazol-3-yl)piperidin-4-yl)-5-(4-bromobenzyl)-morpholin-2-yl)propan-2-ol 2,2,2-trifluoroacetate] | < 4.00
15 | > 7.00 | > 7.00 | Nc1nnc(N2CCC(N3C[C@H](CC(F)(F)F)OC[C@@H]3Cc3ccc(Cl)cc3)CC2)[nH]1 [Example 14, 5-(4-((2S,5S)-5-(4-chlorobenzyl)-2-(2,2,2-trifluoroethyl)morpholino)piperidin-1-yl)-4H-1,2,4-triazol-3-amine 2,2,2-trifluoroacetate] | < 4.00
16 | > 7.00 | > 7.00 | Cn1nccc1[C@H]1CN(C2CCN(c3nnc(N)[nH]3)CC2)[C@@H](Cc2ccc(Cl)cc2)CO1 [Example 10, 5-(4-((2R,5S)-5-(4-chlorobenzyl)-2-(1-methyl-1H-pyrazol-5-yl)morpholino)piperidin-1-yl)-4H-1,2,4-triazol-3-amine 2,2,2-trifluoroacetate] | < 4.00
17 | > 7.00 | > 7.00 | Nc1nnc(N2CCC(N3C[C@H](Cn4cccn4)OC[C@@H]3Cc3ccc(Cl)cc3)CC2)[nH]1 [Example 13, 5-(4-((2R,5S)-2-((1H-pyrazol-1-yl)methyl)-5-(4-chlorobenzyl)morpholino)-piperidin-1-yl)-4H-1,2,4-triazol-3-amine 2,2,2-trifluoroacetate] | < 4.00
18 | > 7.00 | > 7.00 | Nc1nnc(N2CCC(N3C[C@@H]4CC(F)(F)CN4C[C@@H]3Cc3ccc(C(F)(F)F)cc3)CC2)[nH]1 [Example 78, 5-(4-((3S,8aS)-7,7-difluoro-3-(4-(trifluoromethyl)benzyl)hexahydropyrrolo[1,2-a]pyrazin-2(1H)-yl)piperidin-1-yl)-4H-1,2,4-triazol-3-amine 2,2,2-trifluoroacetate] | 4.60 to 5.00
19 | > 7.00 | 6.00 to 7.00 | CC(C)NC(=O)[C@H]1CN(C2CCN(c3nnc(N)[nH]3)CC2)[C@@H](Cc2ccc(Cl)cc2)CO1 [Example 65, (2R,5S)-4-(1-(5-amino-4H-1,2,4-triazol-3-yl)piperidin-4-yl)-5-(4-chlorobenzyl)-N-isopropylmorpholine-2-carboxamide 2,2,2-trifluoroacetate] | < 4.00
20 | > 7.00 | > 7.00 | Nc1nnc(N2CCC(N3C[C@H](CN4CCC(F)(F)CC4)OC[C@@H]3Cc3ccc(Cl)cc3)CC2)[nH]1 [Example 38, 5-(4-((2S,5S)-5-(4-chlorobenzyl)-2-((4,4-difluoropiperidin-1-yl)methyl)-morpholino)piperidin-1-yl)-4H-1,2,4-triazol-3-amine 2,2,2-trifluoroacetate] | –

Row | SMILES | pIC50 (recombinant human AMCase) | pIC50 (recombinant human CHIT1) | pIC50 (hERG channel)
21 | CN(C)C(=O)OC[C@H]1CN(C2CCN(c3nnc(N)[nH]3)CC2)[C@@H](Cc2ccc(Cl)cc2)CO1 [Example 48, ((2R,5S)-4-(1-(5-amino-4H-1,2,4-triazol-3-yl)piperidin-4-yl)-5-(4-chlorobenzyl)morpholin-2-yl)methyl dimethylcarbamate 2,2,2-trifluoroacetate] | > 7.00 | > 7.00 | 4.00 to 4.60
